Test results taken from publication PMC5007650, “Crystal structure of the two-subunit tRNA m^1A58 methyltransferase TRM6-TRM61 from Saccharomyces cerevisiae” (Scientific Reports, 2016).

Columns and labels:
Test in all cases: isothermal titration calorimetry, single-site fit
Assay type in all cases: binding
[1] = biological target: T1, TRM6-TRM61 holoenzyme (Saccharomyces cerevisiae, UniProt P46959)
T1 construct: gene GCD14; full-length TRM6 (478 residues) and TRM61 co-expressed from pETDuet-TRM6-TRM61 in bacteria; Ni-NTA and gel filtration; with tRNA (adenine(58)-N(1))-methyltransferase non-catalytic subunit TRM6
T1 sequence (P46959 whole entry): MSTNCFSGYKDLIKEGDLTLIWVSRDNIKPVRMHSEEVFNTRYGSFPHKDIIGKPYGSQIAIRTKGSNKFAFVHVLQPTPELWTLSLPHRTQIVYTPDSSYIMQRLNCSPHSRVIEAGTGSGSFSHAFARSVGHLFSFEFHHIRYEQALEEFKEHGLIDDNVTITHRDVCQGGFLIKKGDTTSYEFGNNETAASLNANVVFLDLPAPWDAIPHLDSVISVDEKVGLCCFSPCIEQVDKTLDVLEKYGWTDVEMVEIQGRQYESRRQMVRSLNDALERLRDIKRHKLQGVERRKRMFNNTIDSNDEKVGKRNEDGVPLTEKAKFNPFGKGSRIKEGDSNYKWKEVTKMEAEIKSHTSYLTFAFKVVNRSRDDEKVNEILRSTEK
T1 sequence (P41814 whole entry partner): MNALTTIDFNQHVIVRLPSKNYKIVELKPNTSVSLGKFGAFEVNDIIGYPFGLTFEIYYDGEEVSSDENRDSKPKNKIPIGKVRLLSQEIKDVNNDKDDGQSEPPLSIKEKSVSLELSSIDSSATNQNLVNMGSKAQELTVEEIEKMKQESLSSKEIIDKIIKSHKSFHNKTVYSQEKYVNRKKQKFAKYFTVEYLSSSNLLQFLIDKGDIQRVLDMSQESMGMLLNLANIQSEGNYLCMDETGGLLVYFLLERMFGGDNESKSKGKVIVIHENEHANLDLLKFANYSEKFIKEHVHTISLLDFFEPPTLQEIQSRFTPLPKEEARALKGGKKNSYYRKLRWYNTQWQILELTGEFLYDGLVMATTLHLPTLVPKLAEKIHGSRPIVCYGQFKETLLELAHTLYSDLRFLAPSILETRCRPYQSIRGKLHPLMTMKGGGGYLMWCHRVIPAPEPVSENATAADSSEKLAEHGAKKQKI

[2] = biological target: T2, TRM6-TRM61 holoenzyme (Saccharomyces cerevisiae, UniProt P46959, F124A)
T2 construct: gene GCD14; full-length TRM6 (478 residues) and TRM61 co-expressed from pETDuet-TRM6-TRM61 in bacteria; Ni-NTA and gel filtration; with tRNA (adenine(58)-N(1))-methyltransferase non-catalytic subunit TRM6
T2 sequence (P46959 whole entry F124A): as the sequence (P46959 whole entry) above, with F124A counted along it
T2 sequence (P41814 whole entry partner): as the sequence (P41814 whole entry partner) above
Text: (§1) isothermal titration calorimetry, single-site fit on TRM6-TRM61 holoenzyme

[3] = biological target: T3, TRM6-TRM61 holoenzyme (Saccharomyces cerevisiae, UniProt P46959, F140A)
T3 construct: gene GCD14; full-length TRM6 (478 residues) and TRM61 co-expressed from pETDuet-TRM6-TRM61 in bacteria; Ni-NTA and gel filtration; with tRNA (adenine(58)-N(1))-methyltransferase non-catalytic subunit TRM6
T3 sequence (P46959 whole entry F140A): as the sequence (P46959 whole entry) above, with F140A counted along it
T3 sequence (P41814 whole entry partner): as the sequence (P41814 whole entry partner) above
Text: as §1

[4] = biological target: T4, TRM6-TRM61 holoenzyme (Saccharomyces cerevisiae, UniProt P46959, V169A)
T4 construct: gene GCD14; full-length TRM6 (478 residues) and TRM61 co-expressed from pETDuet-TRM6-TRM61 in bacteria; Ni-NTA and gel filtration; with tRNA (adenine(58)-N(1))-methyltransferase non-catalytic subunit TRM6
T4 sequence (P46959 whole entry V169A): as the sequence (P46959 whole entry) above, with V169A counted along it
T4 sequence (P41814 whole entry partner): as the sequence (P41814 whole entry partner) above
Text: as §1

In the case of `C[S+](CC[C@H](N)C(=O)O)C[C@H]1O[C@@H](n2cnc3c(N)ncnc32)[C@H](O)[C@@H]1O` (stereo partly shown) [SAM], the Kd [1] is reported as 44.3 ± 4.55 µM, the Kd [2] is reported as 317 ± 34.7 µM and the Kd [3] is reported as 787 ± 64.5 µM. It also gave a Kd [4] of 409 ± 74.7 µM.
